Measured values from ChEMBL document CHEMBL1140165, “Rotationally constrained 2,4-diamino-5,6-disubstituted pyrimidines: a new class of histamine H4 receptor antagonists with improved druglikeness and in vivo efficacy in pain and inflammation models” (J Med Chem, 2008).
Calls of active or inactive are those of the source.

Legend:
[1] = target: Cannabinoid receptor 1 (Homo sapiens) (UniProt P21554); assay: Binding affinity to CB1 receptor
[2] = target: Delta-type opioid receptor (Homo sapiens) (UniProt P41143); assay: Binding affinity to delta opioid receptor
Chain of Delta-type opioid receptor (Homo sapiens) (P41143 whole entry): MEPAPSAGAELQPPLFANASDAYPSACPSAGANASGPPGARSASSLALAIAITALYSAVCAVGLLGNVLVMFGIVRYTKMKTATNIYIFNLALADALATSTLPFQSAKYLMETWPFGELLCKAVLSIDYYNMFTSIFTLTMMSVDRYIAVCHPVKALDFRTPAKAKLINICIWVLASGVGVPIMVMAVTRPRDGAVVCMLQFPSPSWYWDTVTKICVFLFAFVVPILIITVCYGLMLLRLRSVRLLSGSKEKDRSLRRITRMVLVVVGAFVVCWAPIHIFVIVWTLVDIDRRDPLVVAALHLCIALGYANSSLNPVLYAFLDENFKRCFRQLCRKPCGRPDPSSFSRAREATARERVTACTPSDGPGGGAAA

[3] = Ratio of drug level in brain to plasma in rat at 10 mg/kg, iv after 30 mins; format: ADME, organism-based; set-up: dose 10 mg/kg, route intravenous
[4] = test system: BMMC; assay: Blockade of histamine-induced morphological changes in BALB/c mouse BMMC by flow cytometry; format: functional, cell-based
[5] = test system: Rattus norvegicus; assay: Antinociceptive efficacy against complete Freund's adjuvant-induced thermal hyperalgesia in rat assessed as withdrawal threshold at 500 umol/kg, ip after 48 hrs; format: functional
[6] = target: Prostaglandin G/H synthase 1 (Homo sapiens) (UniProt P23219); assay: Binding affinity at COX1
Chain of Prostaglandin G/H synthase 1 (Homo sapiens) (P23219 whole entry): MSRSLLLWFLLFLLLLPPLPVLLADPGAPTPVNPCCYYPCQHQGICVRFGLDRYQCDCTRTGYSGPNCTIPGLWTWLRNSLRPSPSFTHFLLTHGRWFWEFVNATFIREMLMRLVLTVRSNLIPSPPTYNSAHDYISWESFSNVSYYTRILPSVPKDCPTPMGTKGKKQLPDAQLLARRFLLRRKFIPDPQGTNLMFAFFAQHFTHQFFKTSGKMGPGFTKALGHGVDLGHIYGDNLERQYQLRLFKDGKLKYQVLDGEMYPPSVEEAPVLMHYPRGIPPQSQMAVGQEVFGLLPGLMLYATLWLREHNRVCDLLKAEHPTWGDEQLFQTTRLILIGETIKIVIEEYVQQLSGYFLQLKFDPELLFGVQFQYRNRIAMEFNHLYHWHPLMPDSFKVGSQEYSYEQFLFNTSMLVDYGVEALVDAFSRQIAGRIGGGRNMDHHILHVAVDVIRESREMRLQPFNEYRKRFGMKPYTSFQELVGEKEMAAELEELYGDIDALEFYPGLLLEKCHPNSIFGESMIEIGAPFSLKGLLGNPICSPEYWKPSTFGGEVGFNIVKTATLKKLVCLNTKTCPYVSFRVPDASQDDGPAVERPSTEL

[7] = test system: Rattus norvegicus; assay: Antinociceptive efficacy against complete Freund's adjuvant-induced thermal hyperalgesia in rat assessed as withdrawal threshold at 100 umol/kg, ip after 48 hrs; format: functional
[8] = test system: Rattus norvegicus; assay: Antinociceptive efficacy against von Frey hair mechanically stimulated post-surgical pain after skin incision in rat assessed as withdrawal threshold at 100 umol/kg, ip; format: functional
[9] = Selectivity ratio of Ki for human histamine H4 receptor to Ki for 5HT2A receptor
[10] = target: T1, Histamine H4 receptor (Homo sapiens, UniProt Q9H3N8); assay: Displacement of [3H]histamine from human histamine H4 receptor expressed in HEK293 cells; format: cell-based; settings: read-out: Ki
T1 sequence (Q9H3N8 whole entry): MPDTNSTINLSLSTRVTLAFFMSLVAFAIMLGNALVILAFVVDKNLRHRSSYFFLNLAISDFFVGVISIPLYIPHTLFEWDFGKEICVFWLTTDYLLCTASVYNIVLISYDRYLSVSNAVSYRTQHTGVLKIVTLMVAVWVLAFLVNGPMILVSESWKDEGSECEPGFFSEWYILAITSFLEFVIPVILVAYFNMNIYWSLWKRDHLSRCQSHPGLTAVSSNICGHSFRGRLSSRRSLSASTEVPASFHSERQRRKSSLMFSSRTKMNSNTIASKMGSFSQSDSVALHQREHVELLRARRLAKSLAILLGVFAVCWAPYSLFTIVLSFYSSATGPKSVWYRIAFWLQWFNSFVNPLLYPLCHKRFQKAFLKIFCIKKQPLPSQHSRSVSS

[11] = target: Cytochrome P450 3A4 (Homo sapiens, UniProt P08684); assay: Inhibition of CYP3A4 upto 10 uM; format: ADME
Chain of Cytochrome P450 3A4 (P08684 whole entry): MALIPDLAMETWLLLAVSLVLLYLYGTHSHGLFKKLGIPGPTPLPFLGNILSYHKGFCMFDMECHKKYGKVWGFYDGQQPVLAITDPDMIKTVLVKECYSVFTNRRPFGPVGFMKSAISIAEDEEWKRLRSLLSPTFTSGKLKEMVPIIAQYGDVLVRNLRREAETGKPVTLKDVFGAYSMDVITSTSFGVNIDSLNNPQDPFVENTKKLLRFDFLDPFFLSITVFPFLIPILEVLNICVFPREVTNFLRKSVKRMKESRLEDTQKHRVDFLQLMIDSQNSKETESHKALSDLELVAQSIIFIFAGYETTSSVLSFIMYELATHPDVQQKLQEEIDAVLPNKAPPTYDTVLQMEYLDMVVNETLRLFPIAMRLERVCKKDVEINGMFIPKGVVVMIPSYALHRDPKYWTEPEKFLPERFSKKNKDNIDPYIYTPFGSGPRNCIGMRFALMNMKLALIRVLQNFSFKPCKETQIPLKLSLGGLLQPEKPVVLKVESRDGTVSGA

[12] = Selectivity ratio of Ki for human histamine H4 receptor to Ki for histamine H2 receptor
[13] = Metabolic stability in mouse liver microsomes; format: ADME, Microsome
[14] = target: T1, Histamine H4 receptor; settings: HEK293
[15] = target: Cytochrome P450 2C9 (Homo sapiens, UniProt P11712); assay: Inhibition of CYP2C9 upto 10 uM; format: ADME
Chain of Cytochrome P450 2C9 (P11712 whole entry): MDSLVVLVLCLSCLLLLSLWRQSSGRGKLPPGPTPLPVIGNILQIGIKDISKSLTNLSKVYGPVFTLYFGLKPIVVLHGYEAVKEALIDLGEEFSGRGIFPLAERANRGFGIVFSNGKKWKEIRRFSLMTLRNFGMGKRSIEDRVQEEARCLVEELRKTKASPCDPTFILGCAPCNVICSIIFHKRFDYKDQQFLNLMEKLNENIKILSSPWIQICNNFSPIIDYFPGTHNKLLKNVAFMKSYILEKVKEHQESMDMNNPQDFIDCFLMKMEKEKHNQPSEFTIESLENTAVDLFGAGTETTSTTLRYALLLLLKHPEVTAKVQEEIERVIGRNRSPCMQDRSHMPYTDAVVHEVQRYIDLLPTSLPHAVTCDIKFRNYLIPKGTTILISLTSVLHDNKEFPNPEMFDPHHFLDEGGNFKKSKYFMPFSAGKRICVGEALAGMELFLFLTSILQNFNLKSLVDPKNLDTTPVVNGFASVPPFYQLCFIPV

[16] = target: T2, Histamine H4 receptor (Rattus norvegicus, UniProt Q91ZY1); assay: Antagonist activity at rat histamine H4 receptor expressed in HEK293 cells assessed as inhibition of histamine-induced intracellular calcium elevation by FLIPR assay; format: functional, cell-based
T2 sequence (Q91ZY1 whole entry): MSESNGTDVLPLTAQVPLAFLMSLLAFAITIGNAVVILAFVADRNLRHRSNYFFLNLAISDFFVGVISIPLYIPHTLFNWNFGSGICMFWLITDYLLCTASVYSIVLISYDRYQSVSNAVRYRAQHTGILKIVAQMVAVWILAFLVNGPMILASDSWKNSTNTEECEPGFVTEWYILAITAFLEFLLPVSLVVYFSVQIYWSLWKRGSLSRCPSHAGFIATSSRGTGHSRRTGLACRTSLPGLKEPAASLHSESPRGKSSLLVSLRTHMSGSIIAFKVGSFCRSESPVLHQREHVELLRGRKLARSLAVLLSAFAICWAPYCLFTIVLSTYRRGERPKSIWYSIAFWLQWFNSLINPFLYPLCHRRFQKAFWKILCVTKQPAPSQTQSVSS

[17] = Selectivity ratio of Ki for human histamine H4 receptor to Ki for dopamine D2 receptor
[18] = target: T3, Prostaglandin G/H synthase 2 (Homo sapiens) (UniProt P35354); assay: Binding affinity at COX2
T3 sequence (whole entry): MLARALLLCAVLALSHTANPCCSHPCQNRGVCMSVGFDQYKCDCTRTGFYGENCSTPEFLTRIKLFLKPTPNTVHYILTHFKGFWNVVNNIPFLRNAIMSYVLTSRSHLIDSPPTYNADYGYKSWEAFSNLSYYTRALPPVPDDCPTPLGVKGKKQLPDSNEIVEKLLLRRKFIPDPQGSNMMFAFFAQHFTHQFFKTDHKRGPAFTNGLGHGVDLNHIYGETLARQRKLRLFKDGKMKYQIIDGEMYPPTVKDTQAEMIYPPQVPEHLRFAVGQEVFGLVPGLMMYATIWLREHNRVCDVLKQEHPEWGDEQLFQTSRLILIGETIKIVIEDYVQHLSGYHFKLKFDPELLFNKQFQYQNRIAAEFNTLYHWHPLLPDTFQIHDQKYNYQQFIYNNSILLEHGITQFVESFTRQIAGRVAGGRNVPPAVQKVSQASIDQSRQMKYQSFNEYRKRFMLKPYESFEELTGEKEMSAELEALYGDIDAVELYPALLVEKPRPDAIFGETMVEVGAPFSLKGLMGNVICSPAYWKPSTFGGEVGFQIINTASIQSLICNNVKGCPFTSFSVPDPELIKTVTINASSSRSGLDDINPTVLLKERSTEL

[19] = Selectivity ratio of Ki for human histamine H4 receptor to Ki for 5HT1A receptor
[20] = test system: Mus musculus; assay: Antiinflammatory activity against ip dosed BALB/c mouse assessed as inhibition of zymosan-induced peritonitis after 2 hrs pretreated 30 mins before zymosan challenge; format: functional
[21] = test system: Rattus norvegicus; assay: Antinociceptive efficacy against von Frey hair mechanically stimulated post-surgical pain after skin incision in rat assessed as withdrawal threshold at 30 umol/kg, ip; format: functional
[22] = Protein binding in human; format: ADME, organism-based; settings: in vivo, read-out: PB (converted)
[23] = target: Mu-type opioid receptor (Homo sapiens) (UniProt P35372); assay: Binding affinity to mu opioid receptor
Chain of Mu-type opioid receptor (Homo sapiens) (P35372 whole entry): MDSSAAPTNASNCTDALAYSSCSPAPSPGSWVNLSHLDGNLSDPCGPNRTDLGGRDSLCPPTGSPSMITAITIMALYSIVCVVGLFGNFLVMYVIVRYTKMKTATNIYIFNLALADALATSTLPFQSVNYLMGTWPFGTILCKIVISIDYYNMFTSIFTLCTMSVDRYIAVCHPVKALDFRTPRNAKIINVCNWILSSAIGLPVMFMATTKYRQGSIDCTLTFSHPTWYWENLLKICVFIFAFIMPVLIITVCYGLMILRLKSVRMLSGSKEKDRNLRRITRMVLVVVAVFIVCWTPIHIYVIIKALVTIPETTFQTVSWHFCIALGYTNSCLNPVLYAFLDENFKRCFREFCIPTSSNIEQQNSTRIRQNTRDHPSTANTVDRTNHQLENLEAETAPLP

[24] = test system: Liver microsomes; assay: Metabolic stability in rat liver microsomes; format: ADME, Microsome
[25] = test system: Mus musculus; assay: Inhibition of clobenpropit-induced itching in ip dosed CD1/ICR mouse assessed as blockade of scratching in hind paw for 25 mins pretreated 30 mins before clobenpropit challenge; format: functional
[26] = test system: Rattus norvegicus; assay: Antinociceptive efficacy against von Frey hair mechanically stimulated post-surgical pain after skin incision in rat assessed as withdrawal threshold at 500 umol/kg, ip; format: functional
[27] = species on record: Homo sapiens; assay: Selectivity ratio of Ki for human histamine H4 receptor to Ki for human histamine H3 receptor
[28] = test system: Rattus norvegicus; assay: Antinociceptive efficacy against complete Freund's adjuvant-induced thermal hyperalgesia in rat assessed as withdrawal threshold at 30 umol/kg, ip after 48 hrs; format: functional
[29] = test system: Rattus norvegicus; assay: Antinociceptive efficacy against complete Freund's adjuvant-induced thermal hyperalgesia in rat assessed as withdrawal threshold at 10 umol/kg, ip after 48 hrs; format: functional
[30] = Protein binding in rat; format: ADME, organism-based; settings: in vivo, read-out: PB (converted)
[31] = test system: Liver microsomes; assay: Metabolic stability in human liver microsomes; format: ADME, Microsome
[32] = Selectivity ratio of Ki for human histamine H4 receptor to Ki for adrenergic alpha1 receptor
[33] = target: T4, Histamine H4 receptor (Mus musculus, UniProt Q91ZY2); assay: Antagonist activity at mouse histamine H4 receptor expressed in HEK293 cells assessed as inhibition of histamine-induced intracellular calcium elevation by FLIPR assay; format: functional, cell-based
T4 sequence (Q91ZY2 whole entry): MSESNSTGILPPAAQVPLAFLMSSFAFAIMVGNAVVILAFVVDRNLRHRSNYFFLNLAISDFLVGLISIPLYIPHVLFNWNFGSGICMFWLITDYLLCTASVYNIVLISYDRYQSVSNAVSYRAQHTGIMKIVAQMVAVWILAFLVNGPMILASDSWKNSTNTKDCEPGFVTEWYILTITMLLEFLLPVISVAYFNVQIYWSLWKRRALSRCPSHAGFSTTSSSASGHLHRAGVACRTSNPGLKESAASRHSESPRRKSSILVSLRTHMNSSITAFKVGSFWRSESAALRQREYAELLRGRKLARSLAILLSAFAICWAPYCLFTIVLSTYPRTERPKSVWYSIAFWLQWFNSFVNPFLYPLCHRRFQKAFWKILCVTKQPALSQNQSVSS

[34] = target: Cannabinoid receptor 2 (Homo sapiens) (UniProt P34972); assay: Binding affinity to CB2 receptor
Chain of Cannabinoid receptor 2 (Homo sapiens) (P34972 whole entry): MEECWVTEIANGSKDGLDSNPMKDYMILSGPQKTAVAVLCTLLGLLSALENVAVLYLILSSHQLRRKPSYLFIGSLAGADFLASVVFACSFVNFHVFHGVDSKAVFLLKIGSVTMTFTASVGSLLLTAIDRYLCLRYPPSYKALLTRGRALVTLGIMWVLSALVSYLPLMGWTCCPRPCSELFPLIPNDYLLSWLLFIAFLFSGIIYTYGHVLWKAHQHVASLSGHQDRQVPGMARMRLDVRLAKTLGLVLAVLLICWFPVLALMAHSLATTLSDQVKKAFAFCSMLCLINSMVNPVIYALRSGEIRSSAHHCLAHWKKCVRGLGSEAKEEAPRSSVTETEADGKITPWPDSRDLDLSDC

[35] = target: Kappa-type opioid receptor (Homo sapiens) (UniProt P41145); assay: Binding affinity to kappa opioid receptor
Chain of Kappa-type opioid receptor (Homo sapiens) (P41145 whole entry): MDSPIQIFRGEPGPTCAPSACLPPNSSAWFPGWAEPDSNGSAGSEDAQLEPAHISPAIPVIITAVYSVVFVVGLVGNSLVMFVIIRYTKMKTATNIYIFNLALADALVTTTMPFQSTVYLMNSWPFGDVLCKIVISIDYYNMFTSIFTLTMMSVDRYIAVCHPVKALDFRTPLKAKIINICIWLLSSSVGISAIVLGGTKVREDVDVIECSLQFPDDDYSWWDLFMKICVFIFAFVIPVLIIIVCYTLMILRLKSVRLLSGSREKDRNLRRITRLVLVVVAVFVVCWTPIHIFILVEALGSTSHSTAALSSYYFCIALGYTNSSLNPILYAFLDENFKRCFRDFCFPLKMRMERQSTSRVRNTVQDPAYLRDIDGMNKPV

[36] = target: T2, Histamine H4 receptor; assay: Displacement of [3H]histamine from rat histamine H4 receptor expressed in HEK293 cells; format: cell-based
[37] = target: Cytochrome P450 2D6 (Homo sapiens, UniProt P10635); assay: Inhibition of CYP2D6 upto 10 uM; format: ADME
Chain of Cytochrome P450 2D6 (P10635 whole entry): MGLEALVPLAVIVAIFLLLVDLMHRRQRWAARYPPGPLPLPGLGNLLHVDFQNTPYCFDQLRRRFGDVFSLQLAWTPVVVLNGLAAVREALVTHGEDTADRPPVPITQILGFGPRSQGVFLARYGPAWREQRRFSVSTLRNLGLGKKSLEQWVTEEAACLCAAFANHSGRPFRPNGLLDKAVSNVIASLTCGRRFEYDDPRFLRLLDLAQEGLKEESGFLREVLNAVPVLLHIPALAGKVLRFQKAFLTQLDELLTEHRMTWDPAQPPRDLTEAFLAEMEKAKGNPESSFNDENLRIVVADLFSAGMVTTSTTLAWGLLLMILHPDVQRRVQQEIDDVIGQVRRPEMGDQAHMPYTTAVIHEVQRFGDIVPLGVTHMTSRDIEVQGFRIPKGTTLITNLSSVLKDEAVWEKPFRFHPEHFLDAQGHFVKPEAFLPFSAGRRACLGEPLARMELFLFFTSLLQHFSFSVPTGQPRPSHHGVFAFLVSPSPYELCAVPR

[38] = test system: Rattus norvegicus; assay: Antinociceptive efficacy against von Frey hair mechanically stimulated post-surgical pain after skin incision in rat assessed as withdrawal threshold at 10 umol/kg, ip; format: functional
[39] = Selectivity ratio of Ki for human histamine H4 receptor to Ki for histamine H1 receptor
[40] = Selectivity ratio of Ki for human histamine H4 receptor to Ki for 5HT1D receptor
[41] = Fractional bioavailability in rat at 5 mg/kg, iv and 5 mg/kg, po; format: ADME, organism-based; settings: in vivo
[42] = Half life in mouse at 20 mg/kg, sc; format: ADME, organism-based; set-up: dose 20 mg/kg, route subcutaneous; settings: in vivo
[43] = Cmax in mouse at 20 mg/kg, sc; format: ADME, organism-based; set-up: dose 20 mg/kg, route subcutaneous; settings: in vivo
[44] = Half life in mouse at 5 mg/kg, iv; format: ADME, organism-based; set-up: dose 5 mg/kg, route intravenous; settings: in vivo
[45] = AUC (0 to infinity) in mouse at 5 mg/kg, iv; format: ADME, organism-based; set-up: time infinity, dose 5 mg/kg, route intravenous; settings: plasma
[46] = Terminal volume of distribution in mouse at 5 mg/kg, iv; format: ADME, organism-based; set-up: dose 5 mg/kg, route intravenous; settings: in vivo, read-out: Vbeta
[47] = Cmax in mouse at 5 mg/kg, iv; format: ADME, organism-based; set-up: dose 5 mg/kg, route intravenous; settings: in vivo
[48] = Oral bioavailability in mouse at 20 mg/kg, sc; format: ADME, organism-based; settings: in vivo, subcutaneous
[49] = Tmax in mouse at 20 mg/kg, sc; format: ADME, organism-based; set-up: dose 20 mg/kg, route subcutaneous; settings: in vivo
[50] = test system: Rattus norvegicus; assay: Antinociceptive efficacy in ip dosed spinal nerve ligated Sprague-Dawley rat assessed as reduction of neuropathic pain in paw; format: functional
[51] = AUC (0 to t) in mouse at 5 mg/kg, iv; format: ADME, organism-based; set-up: dose 5 mg/kg, route intravenous; settings: plasma
[52] = Tmax in mouse at 5 mg/kg, iv; format: ADME, organism-based; set-up: dose 5 mg/kg, route intravenous; settings: in vivo
[53] = AUC (0 to t) in mouse at 20 mg/kg, sc; format: ADME, organism-based; set-up: dose 20 mg/kg, route subcutaneous; settings: plasma
[54] = Plasma clearance in mouse at 5 mg/kg, iv; format: ADME, organism-based; set-up: dose 5 mg/kg, route intravenous; settings: plasma
[55] = AUC (0 to infinity) in mouse at 20 mg/kg, sc; format: ADME, organism-based; set-up: time infinity, dose 20 mg/kg, route subcutaneous; settings: plasma

Chain of Cannabinoid receptor 1 (Homo sapiens) (P21554 whole entry): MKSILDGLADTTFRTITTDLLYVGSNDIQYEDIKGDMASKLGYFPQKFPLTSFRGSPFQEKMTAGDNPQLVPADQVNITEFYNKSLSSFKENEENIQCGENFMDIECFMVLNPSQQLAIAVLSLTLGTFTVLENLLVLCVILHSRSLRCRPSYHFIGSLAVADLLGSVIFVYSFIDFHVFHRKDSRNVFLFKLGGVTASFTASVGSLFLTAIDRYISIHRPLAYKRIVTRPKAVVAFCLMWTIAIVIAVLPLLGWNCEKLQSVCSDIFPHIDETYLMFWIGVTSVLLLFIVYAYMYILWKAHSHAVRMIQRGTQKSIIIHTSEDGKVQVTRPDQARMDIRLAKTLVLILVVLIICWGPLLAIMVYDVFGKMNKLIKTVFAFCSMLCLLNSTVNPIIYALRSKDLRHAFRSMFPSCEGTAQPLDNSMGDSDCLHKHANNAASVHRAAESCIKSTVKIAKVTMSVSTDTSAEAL

For `CN[C@@H]1CCN(c2nc(N)nc3c2CCCc2ccccc2-3)C1`, the Activity [1] was “inactive”, the Activity [2] was “inactive” and the Kp at 0.5 h [3] was 3. The Activity [4] was “Active”, the Efficacy [5] was 79% and the Activity [6] was “inactive”. The Efficacy [7] was 49%, the Efficacy [8] was 69% and the Ratio Ki [9] was 2030. For the same compound, the Ki [10] was 3.5 nM, the Activity [11] was “Not Active” and the Ratio Ki [12] was over 1300. The Stability [13] was 29.7 pmol/min/mg, the pKb [14] was 8.21 and the Activity [15] was “Not Active”. The EC50 [16] was 6.61 nM, the Ratio Ki [17] was 1820 and the Activity [18] was “inactive”. For the same compound, the Ratio Ki [19] was 460, the ED50 [20] was 100 µmol/kg and the Efficacy [21] was 21%. For the same compound, the fraction unbound [22] was 0.51, the Activity [23] was “inactive” and the Stability [24] was 173 pmol/min/mg. The ED50 [25] was 235 µmol/kg, the Efficacy [26] was 55% and the Ratio Ki [27] was 570. For the same compound, the Efficacy [28] was 35%, the Efficacy [29] was 34% and the fraction unbound [30] was 0.43. For the same compound, the Stability [31] was 20.7 pmol/min/mg, the Ratio Ki [32] was 150 and the EC50 [33] was 4.37 nM. For the same compound, the Activity [34] was “inactive”, the Activity [35] was “inactive” and the Ki [36] was 5.13 nM. For the same compound, the Activity [37] was “Not Active”, the Efficacy [38] was 9% and the Ratio Ki [39] was over 1890. For the same compound, the Ratio Ki [40] was 235.

With `CN1CCN(C(=O)c2cc3cc(Cl)ccc3[nH]2)CC1` [JNJ-7777120] the bioavailability [41] was 24.1%, the Activity [4] was “Active” and the Activity [11] was “Not Active”. The half-life [42] was 58.2 min, the Cmax [43] was 500 nM and the half-life [44] was 22.8 min. For the same compound, the Stability [13] was 143 pmol/min/mg, the AUC(0-inf) [45] was 0.9 µM·h and the Activity [15] was “Not Active”. For the same compound, the fraction unbound [22] was 0.23, the Vd [46] was 11 L/kg and the Stability [24] was 179 pmol/min/mg. For the same compound, the Cmax [47] was 2220 nM, the bioavailability [48] was 77.6% and the Tmax [49] was 30 min. The fraction unbound [30] was 0.28, the Stability [31] was 19 pmol/min/mg and the ED50 [50] was 217 µmol/kg. The AUC(0-t) [51] was 0.9 µM·h, the Activity [37] was “Not Active” and the Tmax [52] was 6 min. For the same compound, the AUC(0-t) [53] was 2.79 µM·h, the clearance [54] was 334 mL/min/kg and the AUC(0-inf) [55] was 2.79 µM·h.
